Reference: patent US10376499B2, “Combination therapy for treatment of resistant bacterial infections” (priority 2014, dated 2019)
≈ marks a conversion by molar mass, not a printed value.

Key:
A. baumannii [1] = assay: MIC by broth microdilution (CLSI), panel of 60 A. baumannii clinical isolates (Example 1); details: Acinetobacter baumannii
Acinetobacter baumannii = assay: MIC summary, 600 strains of Acinetobacter baumannii (Example 8); details: n = 600 strains; cmpd 1 and SUL each at 4 μg/mL where present
A. baumannii [2] = assay: MIC90 of common antibiotics+compound 1, 196 contemporary clinical isolates of A. baumannii (Example 4); details: B-lactam + Cmpd 1 (4 μg/mL)
Pseudomonas aeruginosa = assay: MIC summary, 600 strains of Pseudomonas aeruginosa (Example 8); details: n = 600 strains; cmpd 1 and SUL each at 4 μg/mL where present
A. baumannii [3] = assay: MIC of sulbactam+compound 1 versus Unasyn®+compound 1 (Example 2); details: equivalent total amount of sulbactam in both combinations; FIG. 2
B. pseudomallei K96243 = format: in vivo, Burkholderia pseudomallei; details: Balb/c mice, lethal intranasal challenge; therapy from 4 hours post challenge for six consecutive days; FIG. 5

C[C@@H](O)[C@H]1C(=O)N2C(C(=O)O)=C(S[C@@H]3CN[C@H](C(=O)N(C)C)C3)[C@H](C)[C@H]12 [Meropenem, meropenem]
MIC50 (A. baumannii [1]): 16 mg/L (≈ 41.7 µM) | MIC90 (A. baumannii [1]): 32 mg/L (≈ 83.4 µM) | MIC (A. baumannii [1]; strain ARC593, OXA-98): 1 mg/L (≈ 2.61 µM) | MIC (A. baumannii [1]; strain ARC2058, OXA-95): 0.25 mg/L (≈ 0.652 µM) | MIC (A. baumannii [1]; strain ARC2461, OXA-66, TEM-1): 2 mg/L (≈ 5.22 µM) | MIC (A. baumannii [1]; strain ARC2462, TEM-1, OXA-66): 4 mg/L (≈ 10.4 µM) | MIC (A. baumannii [1]; strain ARC2598, OXA*, TEM-1, OXA-113): 8 mg/L (≈ 20.9 µM) | MIC (A. baumannii [1]; strain ARC2635, OXA-65, OXA-40, TEM-1): > 32 mg/L | MIC (A. baumannii [1]; strain ARC2636, OXA-65, OXA-40, TEM-1): > 32 mg/L | MIC (A. baumannii [1]; strain ARC2674, SHV-5, OXA-113): 8 mg/L (≈ 20.9 µM) | MIC (A. baumannii [1]; strain ARC2675, SHV-5, OXA-113): > 32 mg/L | MIC (A. baumannii [1]; strain ARC2681, OXA-40, TEM-1, OXA-132): 32 mg/L (≈ 83.4 µM) | MIC (A. baumannii [1]; strain ARC2682, SHV-5, OXA-113): 32 mg/L (≈ 83.4 µM) | MIC (A. baumannii [1]; strain ARC2777, OXA-172, TEM-1): 32 mg/L (≈ 83.4 µM) | MIC (A. baumannii [1]; strain ARC2778, OXA-40, TEM-1, OXA-65): > 32 mg/L | MIC (A. baumannii [1]; strain ARC2779 (A. baumannii/calcoaceticus complex), OXA-2, VIM-2): 16 mg/L (≈ 41.7 µM) | MIC (A. baumannii [1]; strain ARC2780 (A. baumannii/calcoaceticus complex), OXA*, OXA-2, IMP-1): 32 mg/L (≈ 83.4 µM) | MIC (A. baumannii [1]; strain ARC2782, OXA-66, OXA-23, TEM-1, PER-1): 16 mg/L (≈ 41.7 µM) | MIC (A. baumannii [1]; strain ARC2788, OXA-65, TEM-1): 1 mg/L (≈ 2.61 µM) | MIC (A. baumannii [1]; strain ARC3484, TEM-1, OXA-23, OXA-64): 32 mg/L (≈ 83.4 µM) | MIC (A. baumannii [1]; strain ARC3485, OXA-82): 16 mg/L (≈ 41.7 µM) | MIC (A. baumannii [1]; strain ARC3486, OXA-72, OXA-66, TEM-1): > 32 mg/L | MIC (A. baumannii [1]; strain ARC3487, OXA-20, OXA-58, OXA-66): 8 mg/L (≈ 20.9 µM) | MIC (A. baumannii [1]; strain ARC3488, OXA*, OXA-68): 4 mg/L (≈ 10.4 µM) | MIC (A. baumannii [1]; strain ARC3489, OXA*, OXA-68): 4 mg/L (≈ 10.4 µM) | MIC (A. baumannii [1]; strain ARC3490, TEM-1+, PSE-2, OXA-69): 0.5 mg/L (≈ 1.3 µM) | MIC (A. baumannii [1]; strain ARC3491 (A. baumannii/calcoaceticus complex), OXA-215): 2 mg/L (≈ 5.22 µM) | MIC (A. baumannii [1]; strain ARC3492, OXA-40, OXA-132, TEM-1): > 32 mg/L | MIC (A. baumannii [1]; strain ARC3493, OXA-40, OXA-66): > 32 mg/L | MIC (A. baumannii [1]; strain ARC3494, OXA-65): 0.25 mg/L (≈ 0.652 µM) | MIC (A. baumannii [1]; strain ARC3495, OXA-40, OXA-109): > 32 mg/L | MIC (A. baumannii [1]; strain ARC3513, TEM-1, OXA-23, OXA-65): 32 mg/L (≈ 83.4 µM) | MIC (A. baumannii [1]; strain ARC3515, OXA-64, OXA-58): 4 mg/L (≈ 10.4 µM) | MIC (A. baumannii [1]; strain ARC3657, OXA-130): 2 mg/L (≈ 5.22 µM) | MIC (A. baumannii [1]; strain ARC3658, OXA-66, PER-1, TEM-1, OXA-23): 32 mg/L (≈ 83.4 µM) | MIC (A. baumannii [1]; strain ARC3659, OXA-23, OXA*): 8 mg/L (≈ 20.9 µM) | MIC (A. baumannii [1]; strain ARC3882, OXA-23, NDM-1, OXA-10*): > 32 mg/L | MIC (A. baumannii [1]; strain ARC5073, OXA-23, TEM-1, OXA-64, PER-1): > 32 mg/L | MIC (A. baumannii [1]; strain ARC5074, GES*, TEM-1, OXA-51): 8 mg/L (≈ 20.9 µM) | MIC (A. baumannii [1]; strain ARC5075, SHV-5, OXA-113): 32 mg/L (≈ 83.4 µM) | MIC (A. baumannii [1]; strain ARC5076, TEM-1, OXA-23, OXA-66): 32 mg/L (≈ 83.4 µM) | MIC (A. baumannii [1]; strain ARC5077, OXA*, OXA-72): > 32 mg/L | MIC (A. baumannii [1]; strain ARC5079, OXA-72, OXA-65): > 32 mg/L | MIC (A. baumannii [1]; strain ARC5080, OXA-71, OXA-40): > 32 mg/L | MIC (A. baumannii [1]; strain ARC5081, OXA-94, OXA-23): 16 mg/L (≈ 41.7 µM) | MIC (A. baumannii [1]; strain ARC5082, OXA-66, OXA-23): > 32 mg/L | MIC (A. baumannii [1]; strain ARC5083, OXA-66, OXA-23): 16 mg/L (≈ 41.7 µM) | MIC (A. baumannii [1]; strain ARC5084, IMP-4(B), OXA-58, OXA-65): > 32 mg/L | MIC (A. baumannii [1]; strain ARC5085, OXA*, TEM-1): 8 mg/L (≈ 20.9 µM) | MIC (A. baumannii [1]; strain ARC5086, OXA*, TEM-1, OXA-72, OXA-66): > 32 mg/L | MIC (A. baumannii [1]; strain ARC5087, OXA-66, OXA-23): 16 mg/L (≈ 41.7 µM) | MIC (A. baumannii [1]; strain ARC5088, OXA-20, OXA-58, OXA-66): 8 mg/L (≈ 20.9 µM) | MIC (A. baumannii [1]; strain ARC5089, PER*, TEM-1, OXA-23, OXA-66): 32 mg/L (≈ 83.4 µM) | MIC (A. baumannii [1]; strain ARC5091, OXA-82, OXA-23): 32 mg/L (≈ 83.4 µM) | MIC (A. baumannii [1]; strain ARC5092, OXA-23, OXA-64): 16 mg/L (≈ 41.7 µM) | MIC50 (Acinetobacter baumannii): >8 | MIC90 (Acinetobacter baumannii): >8 | MIC Max (Acinetobacter baumannii): >8 | MIC Min (Acinetobacter baumannii): 0.0599 | MIC90 (A. baumannii [2]): 16 mg/L | MIC50 (Pseudomonas aeruginosa): 0.5 | MIC90 (Pseudomonas aeruginosa): >8

CC1(C)S[C@@H]2[C@H](NC(=O)[C@H](N)c3ccccc3)C(=O)N2[C@H]1C(=O)O [ampicillin]
effect of ampicillin on efficacy (MIC of Unasyn®+compound 1 versus sulbactam+compound 1) (A. baumannii [3]): no effect on the efficacy

C[C@H]1c2cccc(O)c2C(=O)C2=C(O)[C@]3(O)C(=O)C(C(N)=O)=C(O)[C@@H](N(C)C)[C@@H]3[C@@H](O)[C@@H]21 [doxycycline]
survivorship (B. pseudomallei K96243): 40%
